Legend:
Type in all cases: cell-based
UO-31 = assay: NCI-60 one-dose SRB screen (Renal Cancer); conditions: Homo sapiens, single dose 10 µM, 48 h, read-out: Growth inhibition percent (GI %)
SN12C = assay: NCI-60 one-dose SRB screen (Renal Cancer); conditions: Homo sapiens, single dose 10 µM, 48 h, read-out: Growth inhibition percent (GI %)
RXF 393 = assay: NCI-60 one-dose SRB screen (Renal Cancer); conditions: Homo sapiens, single dose 10 µM, 48 h, read-out: Growth inhibition percent (GI %)
786-0 = assay: NCI-60 one-dose SRB screen (Renal Cancer); conditions: Homo sapiens, single dose 10 µM, 48 h, read-out: Growth inhibition percent (GI %)
A498 = assay: NCI-60 one-dose SRB screen (Renal Cancer); conditions: Homo sapiens, single dose 10 µM, 48 h, read-out: Growth inhibition percent (GI %)
CAKI-1 = assay: NCI-60 one-dose SRB screen (Renal Cancer); conditions: Homo sapiens, single dose 10 µM, 48 h, read-out: Growth inhibition percent (GI %)
ACHN = assay: NCI-60 one-dose SRB screen (Renal Cancer); conditions: Homo sapiens, single dose 10 µM, 48 h, read-out: Growth inhibition percent (GI %)
TK-10 = assay: NCI-60 one-dose SRB screen (Renal Cancer); conditions: Homo sapiens, single dose 10 µM, 48 h, read-out: Growth inhibition percent (GI %)
T-47D = assay: NCI-60 one-dose SRB screen (Breast Cancer); conditions: Homo sapiens, T47D, single dose 10 µM, 48 h, read-out: Growth inhibition percent (GI %)
BT-549 = assay: NCI-60 one-dose SRB screen (Breast Cancer); conditions: Homo sapiens, single dose 10 µM, 48 h, read-out: Growth inhibition percent (GI %)
MCF-7 = assay: NCI-60 one-dose SRB screen (Breast Cancer); conditions: Homo sapiens, MCF7, single dose 10 µM, 48 h, read-out: Growth inhibition percent (GI %)
HS 578T = assay: NCI-60 one-dose SRB screen (Breast Cancer); conditions: Homo sapiens, single dose 10 µM, 48 h, read-out: Growth inhibition percent (GI %)
MDA-MB-468 = assay: NCI-60 one-dose SRB screen (Breast Cancer); conditions: Homo sapiens, single dose 10 µM, 48 h, read-out: Growth inhibition percent (GI %)
MDA-MB-231/ATCC = assay: NCI-60 one-dose SRB screen (Breast Cancer); conditions: Homo sapiens, single dose 10 µM, 48 h, read-out: Growth inhibition percent (GI %)
DU-145 = assay: NCI-60 one-dose SRB screen (Prostate Cancer); conditions: Homo sapiens, single dose 10 µM, 48 h, read-out: Growth inhibition percent (GI %)
PC-3 = assay: NCI-60 one-dose SRB screen (Prostate Cancer); conditions: Homo sapiens, single dose 10 µM, 48 h, read-out: Growth inhibition percent (GI %)
HOP-92 = assay: NCI-60 one-dose SRB screen (Non-Small Cell Lung Cancer); conditions: Homo sapiens, single dose 10 µM, 48 h, read-out: Growth inhibition percent (GI %)

Row | SMILES | inhibition at 10 µM (UO-31) | inhibition at 10 µM (SN12C) | inhibition at 10 µM (RXF 393) | inhibition at 10 µM (786-0) | inhibition at 10 µM (A498) | inhibition at 10 µM (CAKI-1) | inhibition at 10 µM (ACHN) | inhibition at 10 µM (TK-10) | inhibition at 10 µM (T-47D) | inhibition at 10 µM (BT-549) | inhibition at 10 µM (MCF-7) | inhibition at 10 µM (HS 578T) | inhibition at 10 µM (MDA-MB-468) | inhibition at 10 µM (MDA-MB-231/ATCC) | inhibition at 10 µM (DU-145) | inhibition at 10 µM (PC-3) | inhibition at 10 µM (HOP-92)
1 | NC(=S)NNC(=O)c1cn(-c2ccc(S(N)(=O)=O)cc2)nc1-c1ccc(Br)cc1 [Compound 9d, 2-[3-(4-Bromophenyl)-1-(4-sulfamoylphenyl)-1H-pyrazole-4-carbonyl] hydrazine-1-carbothioamide] | 14.7% | < 5% | < 5% | < 5% | < 5% | 12.1% | < 5% | < 5% | 7.04% | < 5% | < 5% | 6.72% | < 5% | < 5% | < 5% | < 5% | < 5%
2 | CCOC(=O)c1ccc(NC(=O)COC(=O)c2cn(-c3ccc(S(N)(=O)=O)cc3)nc2-c2ccc(OC)cc2)cc1 [Compound 5c, 2-[(4-(Ethoxycarbonyl)phenyl)amino]-2-oxoethyl 3-(4-methoxyphenyl)-1-(4-sulfamoylphenyl)-1H-pyrazole-4-carboxylate] | 38.5% | 21.3% | 55.3% | 53.1% | 23.2% | 55.6% | 21.3% | 23.8% | 46.2% | 21.5% | 48.8% | 31.3% | 40% | 18.8% | 14.7% | 50.9% | 26%
3 | CCOC(=O)c1ccc(NC(=O)COC(=O)c2cn(-c3ccc(S(N)(=O)=O)cc3)nc2-c2ccc(Br)cc2)cc1 [Compound 5d, 2-[(4-(Ethoxycarbonyl)phenyl)amino]-2-oxoethyl 3-(4-bromophenyl)-1-(4-sulfamoylphenyl)-1H-pyrazole-4-carboxylate] | 58.9% | 47.1% | 82.8% | 74.9% | 20.6% | 81.9% | 66% | 18.4% | 60.2% | 36.6% | 91% | 51.3% | 67.6% | 43.7% | 45.8% | 78.8% | 72.1%
4 | COc1ccc(-c2nn(-c3ccc(S(N)(=O)=O)cc3)cc2C(=O)OCC(=O)Nc2ccc(S(N)(=O)=O)cc2)cc1 [Compound 4c, 2-Oxo-2-[(4-sulfamoylphenyl)amino] ethyl 3-(4-methoxyphenyl)-1-(4-sulfamoylphenyl)-1H-pyrazole-4-carboxylate] | 11.9% | < 5% | < 5% | 28.9% | < 5% | 8.36% | < 5% | < 5% | < 5% | 41.6% | 8.77% | < 5% | < 5% | < 5% | < 5% | 8.81% | < 5%
5 | Cc1ccc(-c2nn(-c3ccc(S(N)(=O)=O)cc3)cc2C(=O)NNC(N)=S)cc1 [Compound 9b, 2-[1-(4-Sulfamoylphenyl)-3-(p-tolyl)-1H-pyrazole-4-carbonyl] hydrazine-1-carbothioamide] | < 5% | < 5% | < 5% | < 5% | < 5% | 7.05% | < 5% | < 5% | < 5% | < 5% | < 5% | < 5% | < 5% | < 5% | < 5% | < 5% | < 5%
6 | Cc1ccc(-c2nn(-c3ccc(S(N)(=O)=O)cc3)cc2C(=O)OCC(=O)Nc2nnc(S(N)(=O)=O)s2)cc1 [Compound 6b, 2-Oxo-2-[(5-sulfamoyl-1,3,4-thiadiazol-2-yl)amino] ethyl 1-(4-sulfamoylphenyl)-3-(p-tolyl)-1H-pyrazole-4-carboxylate] | 10.8% | < 5% | < 5% | 5.95% | 7.37% | 28% | < 5% | < 5% | < 5% | < 5% | < 5% | < 5% | < 5% | 8.63% | < 5% | 7.13% | 22.2%
7 | CCOC(=O)c1ccc(NC(=O)COC(=O)c2cn(-c3ccc(S(N)(=O)=O)cc3)nc2-c2ccc(S(C)(=O)=O)cc2)cc1 [Compound 5e, 2-[(4-(Ethoxycarbonyl)phenyl)amino]-2-oxoethyl 3-(4-(methylsulfonyl)phenyl)-1-(4-sulfamoylphenyl)-1H-pyrazole-4-carboxylate] | 21.9% | 7.85% | < 5% | 13.2% | 19.7% | 30.8% | 8.32% | < 5% | 19.1% | 18.9% | 6.56% | 23.7% | 20.3% | < 5% | < 5% | < 5% | < 5%
8 | CS(=O)(=O)c1ccc(-c2nn(-c3ccc(S(N)(=O)=O)cc3)cc2C(=O)NNC(N)=S)cc1 [Compound 9e, 2-[3-(4-(Methylsulfonyl)phenyl)-1-(4-sulfamoylphenyl)-1H-pyrazole-4-carbonyl] hydrazine-1-carbothioamide] | 5.48% | < 5% | < 5% | < 5% | < 5% | 9.93% | < 5% | < 5% | < 5% | < 5% | < 5% | 7.37% | 7.21% | < 5% | < 5% | < 5% | < 5%
9 | COc1ccc(-c2nn(-c3ccc(S(N)(=O)=O)cc3)cc2C(=O)OCC(=O)Nc2nnc(S(N)(=O)=O)s2)cc1 [Compound 6c, 2-Oxo-2-[(5-sulfamoyl-1,3,4-thiadiazol-2-yl)amino] ethyl 3-(4-methoxyphenyl)-1-(4-sulfamoylphenyl)-1H-pyrazole-4-carboxylate] | 14.9% | < 5% | < 5% | < 5% | 7.75% | 21.5% | < 5% | < 5% | < 5% | < 5% | 15.8% | 12.8% | 7.76% | < 5% | < 5% | < 5% | 27.4%

Source: paper PMC12454493, “Insight on novel sulfamoylphenyl pyrazole derivatives as anticancer carbonic anhydrase inhibitors” (Molecular Diversity, 2024)
